Data on four compounds can be found in patent US20100196311A1, “METHODS AND COMPOSITIONS CONTAINING mTOR INHIBITORS FOR ENHANCING IMMUNE RESPONSES” (priority 2009, published 2010).

One assay concerns the target T1, mTOR (Mus musculus, UniProt P26883+Q9JLN9).
T1 construct: endogenous in cells; host or cells: naive OT-I CD8+ T cells (TCR transgenic Rag2-/- mice) stimulated with Ag+B7.1 +/- IL-12
The experiment in a line: mTOR activity (mTOR, S6K and S6 phosphorylation by ICS) in stimulated OT-I cells. The class given is cell-based. How it is done:
FIG. 1. […] (A and B) OT-I cells stimulated with BOK (Ag+B7.1) (±) IL-12 were evaluated for (A) IFN-γ by ICS and (B) cytolytic activity (primary, 72 hr poststimulation; secondary, 24 hr postsecondary stimulation); ***p<0.0002. (C-E) OT-I cells stimulated with antigen (Ag) (the antigen is a peptide consisting of Ser Ile Ile followed by Asn Phe Glu which are followed by Lys and Lue (OVAp), used at 10 nM) plus B7.1 (100 μg/ml)(Ag+B7.1)(±) IL-12 (2 ng/ml) were evaluated by ICS at the indicated time points for (C) phosphorylated mTOR, (D) phosphorylated S6K, and (E) phosphorylated ribosomal S6. For mTOR inhibition, rapamycin (20 ng/ml) was added 30 min prior to addition of antigen, cytokine Data are representative of at least three independent experiments with similar outcomes. (Data are presented as mean±SEM.)
(§1) Stimulation of OT-1 Cells. Naive OT-I cells were stimulated with latex microspheres expressing H-2K^b/ovalbumin antigen and B7.1 according to known techniques. Naive OT-II cells were stimulated with anti-CD3-/anti-CD28-coated latex beads. In some experiments, the cell line derived from embryonic fibroblasts, namely, BOK (MEC.B7.SigOVA: expressing H-2K^b, OVAp and B7.1, were used as antigen-presenting cells to stimulate naive OT-I cells according to known techniques.
Although the kinase mTOR has been implicated as an integrator of various extracellular signals and a sensor for internal energy levels for determination of cell fate, the role for mTOR in integrating instructions that program naive CD8^+ T cells for type I effector differentiation is unclear. First, we tested the ability of Ag and B7.1 (Ag+B7.1) in the presence or absence of IL-12 to activate mTOR in OT-I cells at various time points after stimulation. Stimulation of naive OT-I cells with Ag+B7.1 induced mTOR phosphorylation (activation) by 2 hr, which was maximal at 12 hr and barely detectable by 48 hr (FIG. 1C). Remarkably, IL-12 addition enhanced Ag+B7.1-induced mTOR phosphorylation at 2 hr, which was maintained at 48 hr after stimulation (FIG. 1C). […] To verify that the induction of mTOR phosphorylation also led to its kinase activity, we monitored the kinetics of p70 S6K phosphorylation (Ser 371), a direct target of mTOR kinase activity. Although both Ag+B7.1 and Ag+B7.1 plus IL-12 induced similar amounts of S6K phosphorylation at 12 hr (maximal), the presence of IL-12 was able to sustain the S6K phosphorylation up to 48 hr (FIG. 10), in correlation with mTOR phosphorylation (FIG. 1C). […] The Ag+B7.1±IL-12 stimulation-induced S6K and S6 phosphorylation in OT-I cells was blocked by rapamycin (specific inhibitor of mTOR complex-1) (FIGS. 1D and 1E), thus confirming the ability of instructions to activate mTOR and its kinase activity in OT-I cells. […]

In a further assay the test system is T-bet. The experiment in a line: T-bet mRNA and protein expression in OT-I cells. It counts as cell-based, mouse. How it is done:
FIG. 4. IL-12-Enhanced mTOR Phosphorylation Is Essential for T-bet-Determined Type I Effector Maturation of CD8^+ T Cells. (A-C) OT-I cells stimulated with Ag+B7.1 (±) IL-12 and rapamycin were evaluated for (A) mRNA for T-bet at the indicated time points by RT-PCR, (B) T-bet protein expression at the indicated time-points by ICS, and (C) T-bet protein expression by ICS before and after antigen recall. **p<0.0035; ***p<0.0005. (D) WT and Tbx21^−1− OT-I cells were stimulated with Ag+B7.1 (±) IL-12 and evaluated for IFN-γ production at the primary and secondary phase. ***p<0.0001. (E and F) OT-I cells stimulated with Ag+B7.1 (±) IL-12 and rapamycin were transduced with T-bet-ER retroviral vector (±) 4-HT (10 nM) and evaluated by ICS for (E) T-bet protein expression by ICS and (F) IFN-γ at secondary phase (168 hr). (G and H) OT-I cells stimulated with Ag+B7.1 (±) insulin (1 U/ml) and rapamycin were evaluated by ICS for (G) S6K phosphorylation at 48 hr and (H) T-bet expression at 72 hr. Experiments shown are representative of at least three (A, B, D, E, and F) and two (C, G, and H) independent experiments with similar outcomes. (Data are presented as mean±SEM).
Retroviral Transduction and T-Bet Induction. T-bet-ER RV (Estrogen Responsive Retro Viral Vector) was cotransfected into Platinum-E cells together with the retroviral packaging vector pCL-Eco using LipoD293 DNA in vitro transfection reagent (SignaGen Laboratories) following the manufacturer's instructions. The medium was replaced the following day, and retroviral supernatant was collected 3 days after transfection. For transduction, naive OT-I cells stimulated for 24 hr, were suspended in retroviral supernatant containing polybrene (8 μg/ml; Sigma-Aldrich), and were spin-transduced at 2200 rpm for 90 min at 30° C. After spin-transduction, cells were cultured in fresh medium containing the same polarizing milieu as before, along with the addition of 4-HT (10 nM). At the end of 72 hr after initial stimulation, cells were washed thrice and maintained in the absence of any stimulation but in the presence of 4-HT and IL-7 (10 ng/ml).
Because the sustained expression of T-bet is necessary and sufficient for imprinting type I effector cell fate (Matsuda et al., 2007) and mTOR inhibition reversed IL-12 imprinted type I effector maturation in OT-I cells (FIG. 3), we next sought to determine whether rapamycin treatment affects T-bet expression in OT-I cells by performing kinetic analysis of T-bet mRNA expression (FIG. 4A). […] Moreover, inhibition of mTOR activity at 12 hr was also able to achieve loss in T-bet expression, similar to the observed loss in type I effector maturation (FIG. 3E).

For a further assay, the system named is OT-I cells. The experiment in a line: Type I effector functions (IFN-γ, CTL activity, Granzyme B) of OT-I cells, primary and secondary phase. The class given is cell-based, mouse. The conditions noted are these: T-bet-ER-transduced; tamoxifen 10 nM; secondary phase. How it is done:
FIG. 3. Sustained mTOR Activity Is Essential for Heritable Type I Effector Differentiation of CD8^+ T Cells. […] (D and E) OT-I cells were stimulated with Ag+B7.1 (±) IL-12 and rapamycin was added 12 hr after stimulation to evaluate cells for (D) S6K phosphorylation at 48 hr and (E) IFN-γ production at the primary and secondary phase. Experiments shown are representative of at least three (A and B) and two (C-E) independent experiments with similar outcomes. (Data are presented as mean±SEM.)
as §1
Evaluation of Secondary Antigen-Recall Responses In Vitro. For studying secondary antigen-recall response in vitro; OT-I cells harvested at 72 hr (primary) were washed thrice with medium and recultured (1×10^5/ml) for an additional 72 hr in a 24-well plate with IL-7 (10 ng/ml) only. At 144 hr the cells were harvested, washed thrice with medium, had numbers adjusted (5×10^5), and were restimulated with Ag/B7.1 only for an additional 24 hr (secondary stimulation). At 168 hr, the cells recovered were evaluated by flow cytometry and in vitro functional assay.
Because the presence of IL-12 during antigen stimulation augments mTOR activity and is deterministic for type I effector maturation, we analyzed whether sustained mTOR kinase activity is required for IL-12-programmed type I effector functions in OT-I cells. To do so, we stimulated naive OT-I cells with BOK±IL-12, and rapamycin and effector functions were analyzed from the primary and secondary activated OT-I pool. […] In addition, we observed a block in IL-12-induced IFN-γ production and CTL activity upon rapamycin treatment at 144 hr after primary stimulation.

Assay [1] relates to RENCA tumors expressing CA9. In words: Renal cell carcinoma model: RENCA-CA9 tumors in Balb/c mice, vaccine with or without temsirolimus. The class given is in vivo, mouse. How it is done: FIG. 8. Renal Cell Carcinoma model. mTOR inhibition with temsirolimus enhanced the antitumor effects of a cancer vaccine (complex of hsp110 and CA9) in Balb/C mice 10 days after implantation of RENCA tumors expressing the tumor antigen CA9. Each line represents tumor growth in a single mouse. To generate the vaccine, CA9 (antigen target) and HSP110 (heat shock protein adjuvant) were complexed at 1:1 molar ratio by incubating at 43° C. for 30 min. On day 0, 2×10^5 Renca-CA9 cells were implanted into mice. The vaccine was administered i.d. on days 10, 17 and 24. Temsirolimus was inject i.p. on days 11 to 16, 18 to 23 and 25 to 30.
(§2) In the RCC model, a heat shock protein (HSP) served as an immune adjuvant and was complexed to a target antigen, carbonic anhydrase IX (CA9), which is expressed by 90% of clear cell RCCs. Balb/c mice were implanted with syngeneic RENCA tumors engineered to express CA9. In a treatment model targeting established tumor implants, mice were treated 10 days after implantation with tumor vaccine with or without temsirolimus (FIG. 8). […] In this model, CA9 was complexed to a melanoma antigen, gp100. C57/BL6 mice were implanted with syngeneic B16 tumors engineered to express gp100; mice were treated 10 days later with tumor vaccine. Similar results were obtained using a murine ovarian cancer model where the vaccine was augmented with rapamycin.

Assay [2] deals with B16 tumors expressing gp100. The experiment in a line: Melanoma model: B16-gp100 tumors in C57/BL6 mice, vaccine with or without temsirolimus. The class given is in vivo, mouse. The conditions noted are these: vaccine gp100+CA9; treated 10 days after implantation. How it is done:
FIG. 9. mTOR inhibition with temsirolimus enhanced the antitumor effects of a cancer vaccine (complex of gp100 and CA9) in C57/BL6 mice treated 10 days after implantation of B16 tumors expressing gp100. Each line represents tumor growth in a single mouse. To generate the vaccine, gp100 (antigen target) and CA9 (adjuvant) were complexed at 1:1 molar ratio by incubating at RT for 30 min. On day 0, 2×10^5 B16-gp100 cells were implanted into mice. The vaccine was administered i.d. on days 10, 17 and 24. Temsirolimus was inject i.p. on days 11 to 16, 18 to 23 and 25 to 30.
as §2

The test system of assay [3] is RENCA (renal cancer cells). In words: In vitro growth of RENCA cells. It counts as cell-based, mouse.
The test system of a further assay is B16 melanoma. The experiment in a line: In vitro growth of B16 melanoma. The class given is cell-based, mouse.
In another assay the test system is gp100. The experiment in a line: gp100-specific IFN-γ ELISPOT of splenocytes after immunization. It counts as in vivo, mouse. The conditions noted are these: concurrent treatment with temsirolimus; p<0.05. The source says: FIG. 10. Immunization with CA9+gp100 elicited a gp100-specific IFN-γ response measured using the ELISPOT assay.
(§3) Consistent with this possibility, immunization with CA9+gp100 elicited a gp100-specific IFN-γ response from splenocytes using an ELISPOT assay. […] Further, specific killing increased with temsirolimus treatment in an in vivo CTL assay. Pmel-1 cells were adoptively transferred to C57/BL6 mice and immunized with gp100+CA9 with or without temsirolimus. Pmel-1 cells are transgenic cells that recognize the H-2 Db-restricted epitope corresponding to amino acids 25-33 of gp100.13 Target cells loaded with the H-2 Db-restricted epitope were injected and monitored 14 hours later by flow cytometry. […] When temsirolimus was administered with the vaccine, specific killing increased to 78%.

The test system of assay [4] is target cells loaded with gp100 25-33 epitope. The experiment in a line: In vivo CTL assay with Pmel-1 cells in C57/BL6 mice. The conditions noted are these: temsirolimus administered with the vaccine; 14 hours. On the set-up: species or system mouse.
Description: as §3

Setting [5] is: 2-DG added to Ag+B7.1 and IL-12-stimulated OT-I cells.

As for `O=CC[C@@H](O)[C@H](O)[C@H](O)CO` [2-DG, 2-deoxyglucose], the mTOR activity result at mTOR (setting [5]) was “loss”. For the same compound, the T-bet expression entry in the assay with T-bet (setting [5]) was “loss”.

Take `CC/C(=C(\c1ccccc1)c1ccc(OCCN(C)C)cc1)c1ccccc1` [tamoxifen]: the “IFN-γ production in rapamycin-treated IL-12-conditioned OT-I cells” value in the assay on OT-I cells is given as “restored”. For the same compound, the “T-bet expression in T-bet-ER-transduced OT-I cells” value with T-bet (tamoxifen 10 nM) is given as “substantial increase”.

`CO[C@H]1C[C@@H]2CC[C@@H](C)[C@@](O)(O2)C(=O)C(=O)N2CCCC[C@H]2C(=O)O[C@H]([C@H](C)C[C@@H]2CC[C@@H](OC(=O)C(C)(CO)CO)[C@H](OC)C2)CC(=O)[C@H](C)/C=C(\C)[C@@H](O)[C@@H](OC)C(=O)[C@H](C)C[C@H](C)/C=C/C=C/C=C/1C` [temsirolimus]: in [1] (treatment from 10 days after implantation), the “Tumor growth, agent alone” value is on record as “decrease”. Also, the “Tumor growth, combination of vaccine and temsirolimus” value in assay [1] (vaccine i.d. days 10, 17, 24, temsirolimus i.p. between) was “greatest effect”; in assay [2], “greatest effect”. In addition, the Growth in vitro entry is given as “direct effect” in assay [3] and “no effect” in the assay on B16 melanoma. Moreover, the “gp100-specific IFN-γ response from splenocytes” value in the assay with gp100 is recorded as “significantly augmented”. The Specific killing in [4] was 78%.

For insulin, the “mTOR activity (S6 Kp)” value in the assay with mTOR (insulin (1 U/ml) added to Ag+B7.1-stimulated OT-I cells, 48 hr) is given as “enhanced”. Further, the T-bet expression entry with T-bet (insulin (1 U/ml) added to Ag+B7.1-stimulated OT-I cells, 72 hr) is “increase”.
